PubChem BioAssay (NCI)
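Dose response: 5 concentrations. Exposure: 48 h. Format: 96-well plates. Endpoint: linear interpolation; highest concentration if not reached. TGI: concentration producing complete growth inhibition.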

Assays:
Assay in all cases: NCI-60 cell line screen, 48 h
[1] = tested on: A498 renal
[2] = tested on: A549 NSCLC
[3] = tested on: ACHN renal
[4] = tested on: CAKI-1 renal
[5] = tested on: CCRF-CEM leukemia
[6] = tested on: COLO 205 colon
[7] = tested on: DU-145 prostate
[8] = tested on: EKVX NSCLC
[9] = tested on: HCC-2998 colon
[10] = tested on: HCT-116 colon
[11] = tested on: HCT-15 colon
[12] = tested on: HL-60(TB) leukemia
[13] = tested on: HOP-62 NSCLC
[14] = tested on: HS 578T breast
[15] = tested on: HT29 colon
[16] = tested on: IGROV1 ovarian
[17] = tested on: K-562 leukemia
[18] = tested on: KM12 colon
[19] = tested on: LOX IMVI melanoma
[20] = tested on: M14 melanoma
[21] = tested on: MALME-3M melanoma
[22] = tested on: MCF7 breast
[23] = tested on: MDA-MB-231 breast
[24] = tested on: MDA-MB-435
[25] = tested on: MDA-N
[26] = tested on: MOLT-4 leukemia
[27] = tested on: NCI-H226 lung
[28] = tested on: NCI-H23 lung
[29] = tested on: NCI-H460 lung
[30] = tested on: NCI-H522 lung
[31] = tested on: NCI/ADR-RES ovarian
[32] = tested on: OVCAR-3 ovarian
[33] = tested on: OVCAR-4 ovarian
[34] = tested on: OVCAR-5 ovarian
[35] = tested on: OVCAR-8 ovarian
[36] = tested on: PC-3 prostate
[37] = tested on: RPMI-8226 leukemia
[38] = tested on: RXF 393 renal
[39] = tested on: SF-268 CNS
[40] = tested on: SF-295 CNS
[41] = tested on: SF-539 CNS
[42] = tested on: SK-MEL-2 melanoma
[43] = tested on: SK-MEL-28 melanoma
[44] = tested on: SK-MEL-5 melanoma
[45] = tested on: SK-OV-3 ovarian
[46] = tested on: SN12C renal
[47] = tested on: SNB-19 CNS
[48] = tested on: SNB-75 CNS
[49] = tested on: SR leukemia
[50] = tested on: SW-620 colon
[51] = tested on: T-47D breast
[52] = tested on: TK-10 renal
[53] = tested on: U251 CNS
[54] = tested on: UACC-62 melanoma
[55] = tested on: UO-31 renal
[56] = tested on: 786-0 renal
[57] = tested on: HOP-92 NSCLC
[58] = tested on: UACC-257 melanoma
[59] = tested on: BT-549 breast

CCN(CC)CCNCc1cc(Cl)cc2c1OCOC2
TGI [1]: > 10 µM
TGI [2]: > 10 µM
TGI [3]: > 10 µM
TGI [4]: > 10 µM
TGI [5]: > 10 µM
TGI [6]: > 10 µM
TGI [7]: > 10 µM
TGI [8]: > 10 µM
TGI [9]: > 10 µM
TGI [10]: > 10 µM
TGI [11]: > 10 µM
TGI [12]: > 10 µM
TGI [13]: > 10 µM
TGI [14]: > 10 µM
TGI [15]: > 10 µM
TGI [16]: > 10 µM
TGI [17]: > 10 µM
TGI [18]: > 10 µM
TGI [19]: > 10 µM
TGI [20]: > 10 µM
TGI [21]: > 10 µM
TGI [22]: > 10 µM
TGI [23]: > 10 µM
TGI [24]: > 10 µM
TGI [25]: > 10 µM
TGI [26]: > 10 µM
TGI [27]: > 10 µM
TGI [28]: > 10 µM
TGI [29]: > 10 µM
TGI [30]: > 10 µM
TGI [31]: > 10 µM
TGI [32]: > 10 µM
TGI [33]: > 10 µM
TGI [34]: > 10 µM
TGI [35]: > 10 µM
TGI [36]: > 10 µM
TGI [37]: > 10 µM
TGI [38]: > 10 µM
TGI [39]: > 10 µM
TGI [40]: > 10 µM
TGI [41]: > 10 µM
TGI [42]: > 10 µM
TGI [43]: > 10 µM
TGI [44]: > 10 µM
TGI [45]: > 10 µM
TGI [46]: > 10 µM
TGI [47]: > 10 µM
TGI [48]: > 10 µM
TGI [49]: > 10 µM
TGI [50]: > 10 µM
TGI [51]: > 10 µM
TGI [52]: > 10 µM
TGI [53]: > 10 µM
TGI [54]: > 10 µM
TGI [55]: > 10 µM

CC1=NN(C(=O)CSc2nc3ccc(I)cc3c(=O)n2Cc2ccccc2)C(=O)C1
TGI [56]: > 100 µM
TGI [1]: 83.7 µM
TGI [2]: > 100 µM
TGI [3]: > 100 µM
TGI [4]: > 100 µM
TGI [5]: > 100 µM
TGI [6]: 92.5 µM
TGI [7]: > 100 µM
TGI [8]: 79.8 µM
TGI [9]: > 100 µM
TGI [10]: > 100 µM
TGI [11]: 52.4 µM
TGI [12]: > 100 µM
TGI [13]: > 100 µM
TGI [57]: 70.7 µM
TGI [14]: 35.8 µM
TGI [15]: > 100 µM
TGI [16]: 65.4 µM
TGI [17]: 74.9 µM
TGI [18]: > 100 µM
TGI [19]: > 100 µM
TGI [20]: > 100 µM
TGI [22]: 61.3 µM
TGI [23]: > 100 µM
TGI [24]: 75.2 µM
TGI [25]: > 100 µM
TGI [26]: 67.8 µM
TGI [27]: > 100 µM
TGI [28]: 43.1 µM
TGI [29]: > 100 µM
TGI [30]: 21.2 µM
TGI [31]: 58.3 µM
TGI [32]: 54.9 µM
TGI [33]: 87.8 µM
TGI [34]: > 100 µM
TGI [35]: > 100 µM
TGI [36]: 49.7 µM
TGI [37]: > 100 µM
TGI [38]: 66.2 µM
TGI [39]: 69.5 µM
TGI [40]: 63.9 µM
TGI [41]: > 100 µM
TGI [42]: 41 µM
TGI [43]: > 100 µM
TGI [44]: 55.2 µM
TGI [45]: 77 µM
TGI [46]: > 100 µM
TGI [47]: > 100 µM
TGI [48]: 85.3 µM
TGI [49]: 74 µM
TGI [50]: > 100 µM
TGI [51]: 60.3 µM
TGI [52]: > 100 µM
TGI [53]: 67.4 µM
TGI [58]: 85.4 µM
TGI [54]: > 100 µM

CC1(O)OC(=O)C2=C1CCC1C2CCC2(C)C(O)CCC12 (stereo not given)
TGI [56]: > 100 µM
TGI [1]: > 100 µM
TGI [2]: > 100 µM
TGI [3]: > 100 µM
TGI [59]: > 100 µM
TGI [4]: > 100 µM
TGI [5]: > 100 µM
TGI [7]: > 100 µM
TGI [8]: > 100 µM
TGI [9]: > 100 µM
TGI [10]: > 100 µM
TGI [11]: > 100 µM
TGI [12]: > 100 µM
TGI [13]: > 100 µM
TGI [57]: > 100 µM
TGI [14]: > 100 µM
TGI [15]: > 100 µM
TGI [16]: > 100 µM
TGI [17]: > 100 µM
TGI [18]: > 100 µM
TGI [19]: > 100 µM
TGI [20]: > 100 µM
TGI [21]: > 100 µM
TGI [22]: > 100 µM
TGI [23]: > 100 µM
TGI [24]: > 100 µM
TGI [25]: > 100 µM
TGI [27]: > 100 µM
TGI [28]: > 100 µM
TGI [29]: > 100 µM
TGI [30]: > 100 µM
TGI [31]: > 100 µM
TGI [32]: > 100 µM
TGI [33]: > 100 µM
TGI [34]: > 100 µM
TGI [35]: > 100 µM
TGI [37]: > 100 µM
TGI [39]: > 100 µM
TGI [40]: > 100 µM
TGI [41]: > 100 µM
TGI [43]: > 100 µM
TGI [44]: > 100 µM
TGI [46]: > 100 µM
TGI [47]: > 100 µM
TGI [49]: > 100 µM
TGI [50]: > 100 µM
TGI [51]: > 100 µM
TGI [52]: > 100 µM
TGI [53]: > 100 µM
TGI [58]: > 100 µM
TGI [54]: > 100 µM
TGI [55]: > 100 µM

CCOC(=O)[C@H](Cc1ccc(O)cc1)N=C1[C@H]2CCC[C@]1(O)[C@@](C)([N+](=O)[O-])C2
TGI [56]: > 100 µM
TGI [1]: > 100 µM
TGI [2]: > 100 µM
TGI [3]: > 100 µM
TGI [59]: > 100 µM
TGI [4]: > 100 µM
TGI [5]: > 100 µM
TGI [6]: > 100 µM
TGI [7]: > 100 µM
TGI [8]: > 100 µM
TGI [9]: > 100 µM
TGI [10]: > 100 µM
TGI [11]: > 100 µM
TGI [12]: > 100 µM
TGI [57]: > 100 µM
TGI [14]: > 100 µM
TGI [15]: > 100 µM
TGI [16]: > 100 µM
TGI [17]: > 100 µM
TGI [18]: > 100 µM
TGI [19]: > 100 µM
TGI [20]: > 100 µM
TGI [21]: > 100 µM
TGI [22]: > 100 µM
TGI [24]: > 100 µM
TGI [25]: > 100 µM
TGI [26]: > 100 µM
TGI [27]: > 100 µM
TGI [28]: > 100 µM
TGI [29]: > 100 µM
TGI [30]: > 100 µM
TGI [31]: > 100 µM
TGI [32]: > 100 µM
TGI [33]: > 100 µM
TGI [34]: > 100 µM
TGI [35]: > 100 µM
TGI [37]: > 100 µM
TGI [38]: > 100 µM
TGI [40]: > 100 µM
TGI [41]: > 100 µM
TGI [43]: > 100 µM
TGI [44]: > 100 µM
TGI [45]: > 100 µM
TGI [46]: > 100 µM
TGI [47]: > 100 µM
TGI [49]: > 100 µM
TGI [50]: > 100 µM
TGI [52]: > 100 µM
TGI [53]: > 100 µM
TGI [58]: > 100 µM
TGI [54]: > 100 µM
TGI [55]: > 100 µM
